18 compounds from ChEMBL document CHEMBL5055646, “Discovery of novel BTK PROTACs for B-Cell lymphomas” (Eur J Med Chem, 2021) can be followed below.

Data set [1] has as its target T1, Tyrosine-protein kinase BTK (Homo sapiens, UniProt Q06187). Briefly: Inhibition of full length N-terminal GST fusion tagged human BTK expressed in baculovirus expression system using FAM-P2 peptide solution as substrate incubated for 10 mins in presence of ATP by microplate reader assay.
Data set [2] deals with T2, Protein cereblon/Tyrosine-protein kinase BTK (Homo sapiens, UniProt Q06187+Q96SW2). The data set is described as follows: Protac activity at BTK/CRBN in human JeKo-1 cells assessed as induction of BTK degradation at 100 nM measured after 1 hr by Western blot analysis relative to control. The format is cell-based. (In western blotting, separated proteins are transferred to a membrane and probed.)
Target sequence in this assay (Q06187 2-659 limits assumed): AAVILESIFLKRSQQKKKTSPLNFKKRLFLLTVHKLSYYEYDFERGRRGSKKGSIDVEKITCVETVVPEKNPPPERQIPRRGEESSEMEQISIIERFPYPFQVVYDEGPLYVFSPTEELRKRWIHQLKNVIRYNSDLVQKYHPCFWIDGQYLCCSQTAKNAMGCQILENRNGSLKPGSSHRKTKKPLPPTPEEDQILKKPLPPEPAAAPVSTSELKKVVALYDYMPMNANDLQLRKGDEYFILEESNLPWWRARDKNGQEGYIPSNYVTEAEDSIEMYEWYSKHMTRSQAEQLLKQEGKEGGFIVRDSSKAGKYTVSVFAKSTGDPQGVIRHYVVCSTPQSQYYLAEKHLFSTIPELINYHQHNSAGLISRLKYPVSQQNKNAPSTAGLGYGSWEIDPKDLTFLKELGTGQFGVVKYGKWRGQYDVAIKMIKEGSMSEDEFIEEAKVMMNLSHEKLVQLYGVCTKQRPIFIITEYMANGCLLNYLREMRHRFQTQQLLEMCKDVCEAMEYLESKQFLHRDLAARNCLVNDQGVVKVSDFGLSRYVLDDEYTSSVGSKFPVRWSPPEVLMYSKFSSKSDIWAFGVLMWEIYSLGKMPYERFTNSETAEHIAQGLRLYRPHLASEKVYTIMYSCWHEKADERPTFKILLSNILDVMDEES
Target sequence in this assay (Q96SW2 whole entry partner): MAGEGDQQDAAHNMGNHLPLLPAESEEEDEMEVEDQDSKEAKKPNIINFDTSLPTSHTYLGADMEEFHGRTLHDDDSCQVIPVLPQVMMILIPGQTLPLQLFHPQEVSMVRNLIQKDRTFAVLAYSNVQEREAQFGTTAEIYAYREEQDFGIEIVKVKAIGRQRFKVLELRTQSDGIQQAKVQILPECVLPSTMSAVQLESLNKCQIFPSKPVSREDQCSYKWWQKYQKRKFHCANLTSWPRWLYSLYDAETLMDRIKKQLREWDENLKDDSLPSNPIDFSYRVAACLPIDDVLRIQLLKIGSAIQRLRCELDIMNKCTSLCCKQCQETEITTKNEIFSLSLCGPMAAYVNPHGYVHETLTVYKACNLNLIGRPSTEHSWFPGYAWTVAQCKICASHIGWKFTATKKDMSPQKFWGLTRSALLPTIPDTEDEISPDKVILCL

Data set [3] has as its target T1, Tyrosine-protein kinase BTK. The data set is described as follows: Inhibition of full length N-terminal GST fusion tagged human BTK expressed in baculovirus expression system at 50 nM using FAM-P2 peptide solution as substrate incubated for 10 mins in presence of ATP by microplate reader assay relative to control.
Data set [4] shares this target. Briefly: Inhibition of full length N-terminal GST fusion tagged human BTK expressed in baculovirus expression system at 500 nM using FAM-P2 peptide solution as substrate incubated for 10 mins in presence of ATP by microplate reader assay.
Data set [5] addresses T2, Protein cereblon/Tyrosine-protein kinase BTK. Briefly: Protac activity at BTK/CRBN in human JeKo-1 cells assessed as induction of BTK degradation measured after 1 hr by Western blot analysis. Format: cell-based.
Target sequence in this assay (Q06187 whole entry): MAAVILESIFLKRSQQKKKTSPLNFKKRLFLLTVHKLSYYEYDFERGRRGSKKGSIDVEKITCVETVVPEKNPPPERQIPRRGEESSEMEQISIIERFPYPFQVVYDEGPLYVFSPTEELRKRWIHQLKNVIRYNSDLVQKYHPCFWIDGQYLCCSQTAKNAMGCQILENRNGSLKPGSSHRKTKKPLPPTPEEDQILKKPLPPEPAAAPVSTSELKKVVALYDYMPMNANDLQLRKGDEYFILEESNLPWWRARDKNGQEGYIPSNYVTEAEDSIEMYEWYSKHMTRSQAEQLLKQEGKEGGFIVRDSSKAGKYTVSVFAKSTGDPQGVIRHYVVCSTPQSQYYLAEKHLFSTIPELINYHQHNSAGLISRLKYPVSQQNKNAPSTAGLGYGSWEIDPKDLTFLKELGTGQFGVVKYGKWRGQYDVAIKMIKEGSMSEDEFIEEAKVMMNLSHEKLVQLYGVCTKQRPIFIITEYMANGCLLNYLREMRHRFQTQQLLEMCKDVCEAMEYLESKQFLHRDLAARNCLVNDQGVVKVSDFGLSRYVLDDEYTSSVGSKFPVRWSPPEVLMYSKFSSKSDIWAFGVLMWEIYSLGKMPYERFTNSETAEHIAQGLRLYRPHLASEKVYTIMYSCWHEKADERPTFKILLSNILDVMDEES
Target sequence in this assay (Q96SW2 whole entry): as the sequence (Q96SW2 whole entry partner) above
Data set [6] has as its target Protein cereblon/Tyrosine-protein kinase BTK (Homo sapiens, UniProt Q06187+Q96SW2, C481S). The data set is described as follows: Protac activity at BTK C481S mutant/CRBN in human TMD8 cells assessed as induction of BTK degradation measured after 1 hr by Western blot analysis. Format: cell-based.
In data set [7] the target is T2, Protein cereblon/Tyrosine-protein kinase BTK. Briefly: Protac activity at BTK/CRBN in human JeKo-1 cells assessed as maximal BTK degradation measured after 1 hr by Western blot analysis relative to control. The format is cell-based.
Target sequence in this assay (Q06187 2-659 limits assumed): as the sequence (Q06187 2-659 limits assumed) above
Target sequence in this assay (Q96SW2 whole entry partner): as the sequence (Q96SW2 whole entry partner) above
The subject of data set [8] is Protein cereblon/Tyrosine-protein kinase BTK (Homo sapiens), Q06187+Q96SW2 [C481S]. The data set is described as follows: Protac activity at BTK C481S mutant/CRBN in human TMD8 cells assessed as maximal BTK degradation measured after 1 hr by Western blot analysis relative to control. Format: cell-based.
A short description of data set [9]: Half life in human plasma. Format: ADME, cell-free.
Data set [10] can be described thus: Apparent permeability across apical to basolateral side in human Caco-2 cells. Format: ADME, cell-based. On the technique in general: Caco-2 monolayers are a common model of the intestinal barrier.
The nature of data set [11]: Efflux ratio of apparent permeability from basolateral to apical side over apical to basolateral side in human Caco-2 cells. Format: ADME, cell-based.
Data set [12] has as its system TMD8. Briefly: cells. To be noted: Homo sapiens, TMD8, 72 h.
The nature of data set [13]: Apparent permeability across basolateral to apical side in human Caco-2 cells. The format is ADME, cell-based.
The subject of data set [14] is TMD8. Briefly: cells. To be noted: Homo sapiens, TMD8, 72 h. This is another data set of the same source.

Where only a bound is given, the exact number is not on record here.

T1 sequence (Q06187 whole entry, the tested form may be a part): as the sequence (Q06187 whole entry) above
Sequence of Protein cereblon/Tyrosine-protein kinase BTK (Homo sapiens, UniProt Q06187+Q96SW2, C481S) (Q06187 2-659 C481S limits assumed, stated change not applied): as the sequence (Q06187 2-659 limits assumed) above, with C480S counted along it
Sequence of Protein cereblon/Tyrosine-protein kinase BTK (Homo sapiens, UniProt Q06187+Q96SW2, C481S) (Q96SW2 whole entry, stated change not applied): as the sequence (Q96SW2 whole entry partner) above

The term IC50 denotes the concentration that inhibits the measured activity by half. As usually defined, the inhibition is the change of the read-out against control, counted positive when it falls. For the compound `O=C1CCC(N2C(=O)c3cccc(NCCOCCOCCNC(=O)N[C@H]4CC[C@@H](Nc5ncnc6[nH]cc(C(=O)c7ccc(Oc8ccccc8)cc7Cl)c56)CC4)c3C2=O)C(=O)N1` (stereo partly drawn), in data set [1], the IC50 worked out at 0.0155 µM. Moreover, the Activity in [2] amounted to 22.8%. Also, the inhibition in data set [3] came to 82.1%; in [4], 97.4%.

For the compound `O=C(CNc1ncnc2[nH]cc(C(=O)c3ccc(Oc4ccccc4)cc3Cl)c12)NCCOCCOCCOCCOCCOCCOCCOCCNc1cccc2c1C(=O)N(C1CCC(=O)NC1=O)C2=O` (stereo not drawn), the Activity in data set [2] came out at 14.7%. Also, the inhibition stood at 7% in data set [3] and 39% in [4].

One may read the DC50 as the midpoint of the concentration-degradation curve. For the compound `O=C(CNc1ncnc2[nH]cc(C(=O)c3ccc(Oc4ccccc4)cc3Cl)c12)NCCOCCOCCOCCOCCNc1cccc2c1C(=O)N(C1CCC(=O)NC1=O)C2=O` (stereo not drawn), the DC50 in [5] was 0.0094 µM; in data set [6], 0.0527 µM. Moreover, the IC50 in data set [1] amounted to 2.2 µM. Moreover, the %max in data set [7] was 66.5%; in data set [8] it was 68.6%. In addition, the Activity in data set [2] turned out to be 55.6%. The values for the inhibition in data set [3] and in data set [4] were 5.6% and 35.6%, respectively.

As to `O=C(O)CNc1ncnc2[nH]cc(C(=O)c3ccc(Oc4ccccc4)cc3Cl)c12`, the half-maximal inhibitory concentration (IC50) in [1] turned out to be 0.0814 µM. Further, the figures for the inhibition in [3] and in [4] were 44.2% and 85.1%, respectively.

The term half-life denotes the time needed for the level to fall by half in the phase considered. For orientation: Papp A→B means the apparent permeability from the apical to the basolateral side of a cell layer. By efflux ratio is commonly meant the permeability from basolateral to apical divided by that in the opposite direction, in the common usage. In general, Papp B→A refers to how fast a substance crosses the layer from the basolateral side. As for `O=C1CCC(N2C(=O)c3cccc(NCCOCCOCCOCCOCCOCCNC(=O)N[C@H]4CC[C@@H](Nc5ncnc6[nH]cc(C(=O)c7ccc(Oc8ccccc8)cc7Cl)c56)CC4)c3C2=O)C(=O)N1` (stereo partly drawn), the half-life in data set [9] was found to be 3.55 h. Further, the Papp A→B in [10] is less than 53 nm/s. Further, the 50% degradation concentration (DC50) in data set [5] worked out at 0.0419 µM; in data set [6], 0.0429 µM. For the same compound, the IC50 in data set [1] amounted to 0.0564 µM; with TMD8 [12] it was 0.254 µM; in the data set on TMD8 [14], 0.0457 µM. Further, the efflux ratio in [11] was more than 1.4. Besides, the %max in data set [7] is 93%; in data set [8], 90.7%. In addition, the Activity in data set [2] came to 93.7%. Besides, the results for the inhibition in [3] and in data set [4] were 58.4% and 90%, respectively. Moreover, the Papp B→A in data set [13] came to 75 nm/s.

Consider `O=C(CNc1ncnc2[nH]cc(C(=O)c3ccc(Oc4ccccc4)cc3Cl)c12)NCCOCCOCCOCCOCCOCCNc1cccc2c1C(=O)N(C1CCC(=O)NC1=O)C2=O` (stereo not drawn), for which the half-life in data set [9] was found to be 5.34 h. In addition, the DC50 came out at 0.0081 µM in [5] and 0.0804 µM in data set [6]. Also, the IC50 in data set [1] stood at 1.21 µM; in the data set with TMD8 [12] it was 1.69 µM; in the data set with TMD8 [14] it was 0.0633 µM. The %max stood at 72.4% in data set [7] and 88.4% in data set [8]. The Activity in data set [2] came to 64.2%. For the same compound, the inhibition stood at 5.9% in [3] and 35.5% in data set [4].

Consider `O=C(CNc1ncnc2[nH]cc(C(=O)c3ccc(Oc4ccccc4)cc3Cl)c12)NCCOCCOCCOCCOCCOCCOCCNc1cccc2c1C(=O)N(C1CCC(=O)NC1=O)C2=O` (stereo not drawn), for which the DC50 in [5] stood at 0.0083 µM; in data set [6], 0.0523 µM. Further, the half-maximal inhibitory concentration (IC50) in data set [1] is 1.39 µM; with TMD8 [12], 0.75 µM; in the data set on TMD8 [14] it was 0.104 µM. For the same compound, the %max in [7] was found to be 92.4%; in [8], 84.8%. The Activity in [2] was 78.7%. Besides, the inhibition was determined as 10% in data set [3] and 42.5% in [4].

`CCOC(=O)CNc1ncnc2[nH]cc(C(=O)c3ccc(Oc4ccccc4)cc3Cl)c12`: the IC50 in data set [1] came to 5.97 µM. For the same compound, the inhibition in data set [3] turned out to be 4.9%; in [4], 10.9%.

In the case of `N[C@H]1CC[C@@H](Nc2ncnc3[nH]cc(C(=O)c4ccc(Oc5ccccc5)cc4Cl)c23)CC1`, the IC50 in data set [1] is 0.0043 µM. Further, the results for the inhibition in data set [3] and in data set [4] were 94.2% and 99.5%, respectively.

Consider `O=C(CNc1ncnc2[nH]cc(C(=O)c3ccc(Oc4ccccc4)cc3Cl)c12)NCCOCCOCCNc1cccc2c1C(=O)N(C1CCC(=O)NC1=O)C2=O` (stereo not drawn), for which the 50% inhibitory concentration (IC50) in [1] is 3.78 µM. The Activity in data set [2] was found to be 33%. Moreover, the figures for the inhibition in data set [3] and in [4] were 7.5% and 21.5%, respectively.

Turning to `O=C1CCC(N2C(=O)c3cccc(NCCOCCOCCOCCNC(=O)N[C@H]4CC[C@@H](Nc5ncnc6[nH]cc(C(=O)c7ccc(Oc8ccccc8)cc7Cl)c56)CC4)c3C2=O)C(=O)N1` (stereo partly drawn), the DC50 in [5] is 0.0323 µM; in [6], 0.0301 µM. In addition, the concentration for half-maximal inhibition (IC50) in data set [1] is 0.0223 µM. Besides, the %max in data set [7] is 76.9%; in data set [8] it was 84.3%. The Activity in [2] was 44.1%. Moreover, the inhibition in data set [3] came out at 73.5%; in [4] it was 95.2%.

For `CCNC(=O)CNc1ncnc2[nH]cc(C(=O)c3ccc(Oc4ccccc4)cc3Cl)c12`, the concentration for half-maximal inhibition (IC50) in [1] was determined as 0.407 µM.

In the case of `O=C(CNc1ncnc2[nH]cc(C(=O)c3ccc(Oc4ccccc4)cc3Cl)c12)NCCNc1cccc2c1C(=O)N(C1CCC(=O)NC1=O)C2=O` (stereo not drawn), the inhibition in data set [3] was determined as 2.4%; in data set [4] it was 10.9%.

Turning to `O=C(CNc1ncnc2[nH]cc(C(=O)c3ccc(Oc4ccccc4)cc3Cl)c12)NCCCCNc1cccc2c1C(=O)N(C1CCC(=O)NC1=O)C2=O` (stereo not drawn), the Activity in data set [2] came to 24.9%. For the same compound, the figures for the inhibition in data set [3] and in [4] were 1.8% and 9.3%, respectively.

For `O=C(CNc1ncnc2[nH]cc(C(=O)c3ccc(Oc4ccccc4)cc3Cl)c12)NCCOCCOCCOCCNc1cccc2c1C(=O)N(C1CCC(=O)NC1=O)C2=O` (stereo not drawn), the DC50 in data set [5] came to 0.0285 µM. In addition, in data set [1], the IC50 turned out to be 1.93 µM. The %max in [7] turned out to be 67.1%. In addition, the Activity in [2] was 56.2%. Further, the inhibition in data set [3] stood at 8.6%; in data set [4] it was 21.6%.

In the case of `O=C1CCC(N2C(=O)c3cccc(NCCCCNC(=O)N[C@H]4CC[C@@H](Nc5ncnc6[nH]cc(C(=O)c7ccc(Oc8ccccc8)cc7Cl)c56)CC4)c3C2=O)C(=O)N1` (stereo partly drawn), in data set [1], the half-inhibitory concentration (IC50) was 0.023 µM. In addition, in data set [2], the Activity was determined as 6.8%. In addition, the inhibition in [3] was determined as 75%; in data set [4], 96.2%.

Take `O=C1CCC(N2C(=O)c3cccc(NCCOCCOCCOCCOCCNC(=O)N[C@H]4CC[C@@H](Nc5ncnc6[nH]cc(C(=O)c7ccc(Oc8ccccc8)cc7Cl)c56)CC4)c3C2=O)C(=O)N1` (stereo partly drawn): the values for the DC50 in [5] and in data set [6] were 0.0121 µM and 0.0379 µM, respectively. Moreover, the IC50 in data set [1] is 0.0469 µM; with TMD8 [12] it was 0.29 µM; with TMD8 [14], 0.0395 µM. Moreover, the %max stood at 78% in data set [7] and 83.5% in data set [8]. Further, the Activity in data set [2] worked out at 88.8%. Besides, the inhibition in [3] is 32.6%; in data set [4], 74.9%.

`CCNC(=O)N[C@H]1CC[C@@H](Nc2ncnc3[nH]cc(C(=O)c4ccc(Oc5ccccc5)cc4Cl)c23)CC1`: in [1], the IC50 stood at 0.0252 µM.
